Experimental data from patent US6831083B2, “Pyrazoline derivative or tetrahydropyridazine derivative and medicinal use thereof” (Mitsui Chemicals, Inc., priority 2000, dated 2004).
Marks after values point to notes of the source that are not given here.

Experiments:
rat GLT-1 = biological target: T1, rat GLT-1 (Rattus norvegicus, UniProt P31596); experiment: Activating action for glia type glutamic acid transporter (GLT-1): [3H]-glutamate intake in COS-7 cells; format: cell-based; conditions: test compound 100 μM, treated from 1 hour before [3H]-glutamate (2 μM), 3 min uptake; COS-7 cells expressing rat GLT-1; percentage relative to solvent-treated group
T1 construct: expressed in transfected cells; host or cells: COS-7 cells
Protocol: Test Example 1 Activating Action for Glia Type Glutamic Acid Transporter (GLT-1)
Activating action for GLT-1 was evaluated by a test using COS-7 cells into which rat GLT-1 had been introduced. To COS-7 cells capable of expressing GLT-1 was added a [^3H]-glutamate-containing KRH solution (200 μl, final concentration: 2 μM). 3 minutes later, the ^3H amount was measured using a scintillation counter. A test compound (100 μM) was dissolved in the KRH solution and a treatment was conducted from 1 hour before the addition of [^3H]-glutamate. The action of the test compound for intake of glutamic acid was expressed as a percentage relative to the glutamic acid intake ability of solvent-treated group.
Glutamic acid intake (%)=[test compound (dpm)/control (dpm)]×100
This test was conducted based on a method by Shimada et al. [Eur. J. Pharmacol., 386, 263-270 ([…])].

[1] = test system: rat models of middle cerebral artery obstruction; experiment: Action for cerebral infarct caused by middle cerebral artery obstruction in rat; format: in vivo; conditions: male SD rats, left MCA obstruction, brain taken 24 hours after obstruction, TTC
Protocol: Test Example 2 Action for Cerebral Infarct Caused by Middle Cerebral Artery Obstruction in Rat
Preparation of rat models having middle cerebral artery obstruction was conducted according to a method of Tamura et al. [J. Cerebral Blood Flow and Metabolism, 53-60 (1981)]. Specifically, 9 to 10 week-old male SD strain rats were used and their left middle cerebral arteries were obstructed under anesthesia by […] halosen. The compound of Example 5 or 26 was used as a test compound. The compound of Example 5 was intravenously administered in a dosage of 10 mg/kg for 24 hours from right after the obstruction; and the compound of Example 26 was intraperitoneally administered in a dosage of 50 mg/kg right after the obstruction and 6 hours after the obstruction. The brain of each rat was taken out 24 hours after the obstruction of rat middle cerebral artery, was divided into 6 parts, and was dyed with TTC. The section of each dyed part was photographed, and the focus of cerebral infarct was measured using an image analyzer. The rats in control group were as well subjected to middle cerebral artery obstruction.

ddy mice = experiment: Toxicity test in ddy mice; format: in vivo; conditions: 100 mg/kg (i. p.), 24 hours after administration
Protocol: Test Example 3 Toxicity Test
A test compound was administered into ddy mice to investigate its toxicity. The test compound was intraperitoneally administered in a dosage of 100 mg/kg; the mortality rate of the mice 24 hours after the administration was examined; and the toxicity of the test compound was evaluated from the mortality rate.

T1 sequence (P31596 whole entry): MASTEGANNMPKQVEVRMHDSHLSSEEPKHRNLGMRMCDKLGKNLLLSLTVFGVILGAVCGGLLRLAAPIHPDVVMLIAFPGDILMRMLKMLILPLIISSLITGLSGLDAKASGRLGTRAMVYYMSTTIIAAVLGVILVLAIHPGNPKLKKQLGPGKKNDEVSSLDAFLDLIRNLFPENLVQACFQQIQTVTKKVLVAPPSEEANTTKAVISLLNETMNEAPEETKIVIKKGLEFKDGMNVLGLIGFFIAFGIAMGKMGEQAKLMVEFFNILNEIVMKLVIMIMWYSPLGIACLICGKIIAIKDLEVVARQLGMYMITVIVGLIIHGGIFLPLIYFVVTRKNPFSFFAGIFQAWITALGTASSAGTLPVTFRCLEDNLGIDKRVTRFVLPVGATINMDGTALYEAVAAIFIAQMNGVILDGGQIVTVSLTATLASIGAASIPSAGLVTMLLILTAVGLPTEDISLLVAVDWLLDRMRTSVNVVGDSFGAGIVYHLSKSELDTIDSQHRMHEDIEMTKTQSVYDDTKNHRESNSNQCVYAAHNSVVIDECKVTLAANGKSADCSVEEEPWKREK

Row | Compound | Glutamic acid intake (%) (rat GLT-1) | melting point [°C] | other results
1 | O=C(c1cccnc1)N1CC2COc3cc(Cl)ccc3C2=N1 (stereo not shown) [Example 31, 2-nicotinoyl-7-chloro-3,3a-dihydro-2H,4H-[1]-benzopyrano[4,3-c]pyrazole] | 125 | – | –
2 | COc1ccccc1C1=NN(C(=O)c2cccnc2)CC1 [Example 14, 1-nicotinoyl-3-(2-methoxyphenyl)-2-pyrazoline] | 124 | 130 to 132 | –
3 | O=C(c1cccnc1)N1CCC(c2cccc(Cl)c2)=N1 [Example 11, 1-nicotinoyl-3-(3-chlorophenyl)-2-pyrazoline] | 140 | 124 to 126 | –
4 | O=C(c1cnccn1)N1CC2CS(=O)(=O)c3ccccc3C2=N1 (stereo not shown) [Example 42, 2-(2-pyrazinoyl)-3,3a-dihydro-2H,4H-[1]-benzothiopyrano-[4,3-c]pyrazole-S-dioxide] | 125 | – | –
5 | COc1ccc(C2=NN(C(=O)c3cccnc3)CC2)cc1 [Example 13, 1-nicotinoyl-3-(4-methoxyphenyl)-2-pyrazoline] | 129 | 132 to 134 | –
6 | Cc1ccc(C2=NN(C(=O)c3cccnc3)CC2)cc1 [Example 19, 1-nicotinoyl-3-(4-methylphenyl)-2-pyrazoline] | 131 | 100 to 102 | –
7 | O=C(c1cccnc1)N1CCCC(c2ccccc2)=N1 [Example 1, 1-nicotinoyl-3-phenyl-1,4,5,6-tetrahydropyridazine] | 136 | – | –
8 | O=C(c1cccnc1)N1CCC(c2ccc(Br)cc2)=N1 [Example 9, 1-nicotinoyl-3-(4-bromophenyl)-2-pyrazoline] | 138 | – | –
9 | O=C(c1cnccn1)N1CC2CSc3ccccc3C2=N1 (stereo not shown) [Example 40, 2-(2-pyrazinoyl)-3,3a-dihydro-2H,4H-[1]-benzothiopyrano-[4,3-c]pyrazole] | – | 190 to 192 | –
10 | O=C(c1cccnc1)N1CCC(c2ccc([N+](=O)[O-])cc2)=N1 [Example 24, 1-nicotinoyl-3-(4-nitrophenyl)-2-pyrazoline] | 130 | 175 to 177 | –
11 | O=C(c1cccnc1)N1CC2COc3ccccc3C2=N1 (stereo not shown) [Example 26, 2-nicotinoyl-3,3a-dihydro-2H,4H-[1]-benzopyrano[4,3-c]pyrazole] | 131 | – | Focus of cerebral infarct (mm^3) ([1]; 50 mg/kg intraperitoneally right after and 6 hours after obstruction, control group 188.0 ± 54.8): 135.9 ± 30.5* mm^3; Mortality rate (%) (ddy mice): 0%
12 | Cc1ccccc1C1=NN(C(=O)c2cccnc2)CC1 [Example 21, 1-nicotinoyl-3-(2-methylphenyl)-2-pyrazoline] | 129 | – | –
13 | O=C(c1cccnc1)N1CCC(c2ccccc2[N+](=O)[O-])=N1 [Example 25, 1-nicotinoyl-3-(2-nitrophenyl)-2-pyrazoline] | – | 123 to 125 | –
14 | Cc1cccc(C2=NN(C(=O)c3cccnc3)CC2)c1 [Example 20, 1-nicotinoyl-3-(3-methylphenyl)-2-pyrazoline] | 134 | 99 to 100 | –
15 | COc1ccccc1C1=NN(C(=O)c2cccnc2)CC1C (stereo not shown) [Example 15, 1-nicotinoyl-3-(2-methoxyphenyl)-4-methyl-2-pyrazoline] | 134 | 124 to 125 | –
16 | O=C(c1cccnc1)N1CCC(c2ccc(F)cc2)=N1 [Example 7, 1-nicotinoyl-3-(4-fluorophenyl)-2-pyrazoline] | 143 | 128 to 130 | –
17 | Cc1ccc(C2=NN(C(=O)c3cccnc3)CC2)c(C)c1 [Example 22, 1-nicotinoyl-3-(2,4-dimethylphenyl)-2-pyrazoline] | – | 102 to 104 | –
18 | CCOc1ccc(C2=NN(C(=O)c3cccnc3)CC2)cc1 [Example 17, 1-nicotinoyl-3-(4-ethoxyphenyl)-2-pyrazoline] | 129 | 124 to 125 | –
19 | CS(=O)(=O)O.O=C(c1cccnc1)N1CCC(c2ccccc2)=N1 [Example 5, 1-nicotinoyl-3-phenyl-2-pyrazoline methanesulfonate] | 145 | – | Focus of cerebral infarct (mm^3) ([1]; 10 mg/kg intravenously for 24 hours from right after obstruction, control group 224.4 ± 71.5): 131.7 ± 51.6** mm^3; Mortality rate (%) (ddy mice): 0%
20 | O=C(c1cccnc1)N1CCC(c2ccccc2Cl)=N1 [Example 12, 1-nicotinoyl-3-(2-chlorophenyl)-2-pyrazoline] | 134 | – | –
21 | O=C(c1cccnc1)N1CCC(c2ccccc2F)=N1 [Example 8, 1-nicotinoyl-3-(2-fluorophenyl)-2-pyrazoline] | 134 | – | –
22 | O=C(c1cccnc1)N1CCC(c2ccc(Cl)cc2)=N1 [Example 10, 1-nicotinoyl-3-(4-chlorophenyl)-2-pyrazoline] | 135 | – | –
23 | O=C(c1cccnc1)N1CCC(c2ccccc2C(F)(F)F)=N1 [Example 23, 1-nicotinoyl-3-(2-trifluoromethylphenyl)-2-pyrazoline] | 128 | – | –
24 | O=C(c1cnccn1)N1CCCC(c2ccccc2)=N1 [Example 2, 1-(2-Pyrazinoyl)-3-phenyl-1,4,5,6-tetrahydropyridazine] | 126 | – | –
25 | COc1ccc(C2=NN(C(=O)c3cccnc3)CC2)c(OC)c1 [Example 16, 1-nicotinoyl-3-(2,4-dimethoxyphenyl)-2-pyrazoline] | 126 | 112 to 113 | –
26 | CCOc1ccccc1C1=NN(C(=O)c2cccnc2)CC1 [Example 18, 1-nicotinoyl-3-(2-ethoxyphenyl)-2-pyrazoline] | – | 155 to 157 | –
